Measurements published in US9382197B2, “Substituted hydroxamic acids and uses thereof” (Millennium Pharmaceuticals, Inc., priority 2010, dated 2016).

Each compound was assayed against T1, purified human HDAC6 (Homo sapiens, UniProt Q9UBN7) (assay: HDAC6 Enzyme Assay). Conditions: bin: greater than 1 μM.
T1 construct: purchased BPS Bioscience 5006
T1 sequence (Q9UBN7 1-1215): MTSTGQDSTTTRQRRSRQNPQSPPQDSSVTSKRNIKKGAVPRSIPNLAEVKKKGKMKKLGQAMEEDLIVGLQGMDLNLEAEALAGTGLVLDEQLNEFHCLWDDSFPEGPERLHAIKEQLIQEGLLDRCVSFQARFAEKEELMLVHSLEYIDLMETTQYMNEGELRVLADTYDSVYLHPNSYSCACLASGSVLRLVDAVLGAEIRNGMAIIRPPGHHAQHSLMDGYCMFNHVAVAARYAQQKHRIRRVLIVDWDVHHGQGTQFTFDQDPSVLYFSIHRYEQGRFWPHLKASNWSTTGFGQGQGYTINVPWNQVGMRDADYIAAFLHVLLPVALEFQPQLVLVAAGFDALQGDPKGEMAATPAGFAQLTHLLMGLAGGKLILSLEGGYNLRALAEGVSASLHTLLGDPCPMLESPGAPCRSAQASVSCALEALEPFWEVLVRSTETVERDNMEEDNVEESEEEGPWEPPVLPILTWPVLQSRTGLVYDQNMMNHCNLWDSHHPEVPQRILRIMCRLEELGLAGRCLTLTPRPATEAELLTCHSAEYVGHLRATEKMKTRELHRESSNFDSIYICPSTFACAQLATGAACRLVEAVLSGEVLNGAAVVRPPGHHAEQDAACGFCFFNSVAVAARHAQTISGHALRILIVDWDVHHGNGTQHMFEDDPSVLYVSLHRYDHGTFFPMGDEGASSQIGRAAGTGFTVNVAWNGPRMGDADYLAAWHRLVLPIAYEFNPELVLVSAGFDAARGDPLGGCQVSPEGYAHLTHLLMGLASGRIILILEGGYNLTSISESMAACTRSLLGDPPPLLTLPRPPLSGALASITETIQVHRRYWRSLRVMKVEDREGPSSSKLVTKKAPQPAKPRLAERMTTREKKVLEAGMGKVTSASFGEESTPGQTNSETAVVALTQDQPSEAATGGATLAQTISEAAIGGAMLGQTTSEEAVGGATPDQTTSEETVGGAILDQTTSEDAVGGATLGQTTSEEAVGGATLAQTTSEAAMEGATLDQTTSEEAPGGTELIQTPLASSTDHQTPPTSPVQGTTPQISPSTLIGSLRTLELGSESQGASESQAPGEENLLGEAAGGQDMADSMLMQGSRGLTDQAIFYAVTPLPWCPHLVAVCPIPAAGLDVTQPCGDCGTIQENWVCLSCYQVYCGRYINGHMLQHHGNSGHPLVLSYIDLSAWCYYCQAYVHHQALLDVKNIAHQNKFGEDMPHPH
Assay type: biochemical
Method in brief: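 Purified human HDAC6 incubated 1 h at 30 °C with Ac-Arg-Gly-Lys(Ac)-AMC and compound; trichostatin A stop, trypsin release of AMC, fluorescence Ex 340/Em 460 nm. IC50 from concentration–response relative to DMSO.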

Row | Compound | IC50 [nM]
1 | CC(NC(=O)Cc1cc(C(F)(F)F)cc(C(F)(F)F)c1)c1cccc(C(=O)NO)c1 (stereo not shown) [Compound I-362, 3-[1-({[3,5-bis(trifluoromethyl)phenyl]acetyl}amino)ethyl]-N-hydroxybenzamide] | > 1000
2 | CC(NC(=O)c1c(Cl)cccc1Cl)c1cccc(C(=O)NO)c1 (stereo not shown) [Compound I-366, 2,6-dichloro-N-(1-{3-[(hydroxyamino)carbonyl]phenyl}ethyl)benzamide] | > 1000
3 | CC(NC(=O)CC1CCCC1)c1ccc(C(=O)NO)cc1 (stereo not shown) [Compound I-370, 4-{1-[(cyclopentylacetyl)amino]ethyl}-N-hydroxybenzamide] | > 1000
4 | CC(C)(C)C(NC(=O)C1CCCC1)c1ccc(C(=O)NO)cc1 (stereo not shown) [Compound I-373, 4-{1-[(cyclopentylcarbonyl)amino]-2,2-dimethylpropyl}-N-hydroxybenzamide] | > 1000
5 | CC(NC(=O)CC1CC1)c1ccc(C(=O)NO)cc1 (stereo not shown) [Compound I-379, 4-{1-[(cyclopropylacetyl)amino]ethyl}-N-hydroxybenzamide] | > 1000
6 | Cn1c(C(=O)NC(c2ccc(C(=O)NO)cc2)C(C)(C)C)cc(Cl)c1Cl (stereo not shown) [Compound I-386, 4,5-dichloro-N-(1-{4-[(hydroxyamino)carbonyl]phenyl}-2,2-dimethylpropyl)-1-methyl-1H-pyrrole-2-carboxamide] | > 1000
7 | CC(C)C(NC(=O)c1cc2ccccc2s1)c1cccc(C(=O)NO)c1 (stereo not shown) [Compound I-390, N-(1-{3-[(hydroxyamino)carbonyl]phenyl}-2-methylpropyl)-1-benzothiophene-2-carboxamide] | > 1000

Same assay, conditions: purified human HDAC6, substrate Ac-Arg-Gly-Lys(Ac)-AMC, 1 hour at 30° C.; reported as bins

Row | Compound | IC50 [nM]
8 | CC(NC(=O)c1cccn1C)c1ccc(C(=O)NO)cc1 (stereo not shown) [Compound I-356, N-(1-{4-[(hydroxyamino)carbonyl]phenyl}ethyl)-1-methyl-1H-pyrrole-2-carboxamide] | < 100
9 | CC(NC(=O)CC1Cc2ccccc2C1)c1ccc(C(=O)NO)cc1 (stereo not shown) [Compound I-357, 4-{1-[(2,3-dihydro-1H-inden-2-ylacetyl)amino]ethyl}-N-hydroxybenzamide] | < 100
10 | CC(=O)c1cccc(NC(=O)NC(C)c2ccc(C(=O)NO)cc2)c1 (stereo not shown) [Compound I-358, 4-[1-({[(3-acetylphenyl)amino]carbonyl}amino)ethyl]-N-hydroxybenzamide] | < 100
11 | C[C@@H](NC(=O)c1cc(Cl)c(Cl)n1C)c1ccc(C(=O)NO)cc1 [Compound I-359, 4,5-dichloro-N-((1R)-1-{4-[(hydroxyamino)carbonyl]phenyl}ethyl)-1-methyl-1H-pyrrole-2-carboxamide] | < 100
12 | CC(NC(=O)c1ccc2ncsc2c1)c1ccc(C(=O)NO)cc1 (stereo not shown) [Compound I-360, N-(1-{4-[(hydroxyamino)carbonyl]phenyl}ethyl)-1,3-benzothiazole-6-carboxamide] | < 100
13 | CC(NS(=O)(=O)c1cccc2cccnc12)c1ccc(C(=O)NO)cc1 (stereo not shown) [Compound I-363, N-hydroxy-4-{1-[(quinolin-8-ylsulfonyl)amino]ethyl}benzamide] | 100 to 500
14 | Cn1c(C(=O)NC(c2ccc(C(=O)NO)cc2)C(C)(C)C)cc2ccccc21 (stereo not shown) [Compound I-364, N-(1-{4-[(hydroxyamino)carbonyl]phenyl}-2,2-dimethylpropyl)-1-methyl-1H-indole-2-carboxamide] | 100 to 500
15 | CCC[C@@H](NC(=O)C(C)(C)C)c1ccc(C(=O)NO)cc1 [Compound I-365, 4-{(1R)-1-[(2,2-dimethylpropanoyl)amino]butyl}-N-hydroxybenzamide] | < 100
16 | CCC[C@@H](NC(=O)c1oc2ccccc2c1C)c1ccc(C(=O)NO)cc1 [Compound I-367, N-((1R)-1-{4-[(hydroxyamino)carbonyl]phenyl}butyl)-3-methyl-1-benzofuran-2-carboxamide] | < 100
17 | CC(C)[C@@H](NC(=O)NC(C)(C)C)c1ccc(C(=O)NO)cc1 [Compound I-368, 4-((1R)-1-{[(tert-butylamino)carbonyl]amino}-2-methylpropyl)-N-hydroxybenzamide] | 100 to 500
18 | CC(NS(=O)(=O)c1cc2ccccc2s1)c1ccc(C(=O)NO)cc1 (stereo not shown) [Compound I-369, 4-{1-[(1-benzothien-2-ylsulfonyl)amino]ethyl}-N-hydroxybenzamide] | 100 to 500
19 | CC(NC(=O)Nc1cccc(C(F)(F)F)c1)c1ccc(C(=O)NO)cc1 (stereo not shown) [Compound I-371, N-hydroxy-4-{1-[({[3-(trifluoromethyl)phenyl]amino}carbonyl)amino]ethyl}benzamide] | < 100
20 | CC(NC(=O)C1C(C)(C)C1(C)C)c1ccc(C(=O)NO)cc1 (stereo not shown) [Compound I-372, N-hydroxy-4-(1-{[(2,2,3,3-tetramethylcyclopropyl)carbonyl]amino}ethyl)benzamide] | 100 to 500
21 | C[C@@H](NC(=O)NC12CC3CC(CC(C3)C1)C2)c1ccc(C(=O)NO)cc1 [Compound I-374, 4-[(1R)-1-({[1-adamantylamino]carbonyl}amino)ethyl]-N-hydroxybenzamide] | < 100
22 | CC(C)C(NC(=O)c1ccc(-c2ccccc2)[nH]c1=O)c1ccc(C(=O)NO)cc1 (stereo not shown) [Compound I-375, N-(1-{4-[(hydroxyamino)carbonyl]phenyl}-2-methylpropyl)-2-oxo-6-phenyl-1,2-dihydropyridine-3-carboxamide] | < 100
23 | Cc1ccc2[nH]c(C(=O)NC(C)c3cccc(C(=O)NO)c3)c(C)c2c1 (stereo not shown) [Compound I-376, N-(1-{3-[(hydroxyamino)carbonyl]phenyl}ethyl)-3,5-dimethyl-1H-indole-2-carboxamide] | 100 to 500
24 | CC(C)(C)c1ccc(C(=O)NC(c2ccc(C(=O)NO)cc2)C(C)(C)C)cc1 (stereo not shown) [Compound I-377, 4-tert-butyl-N-(1-{4-[(hydroxyamino)carbonyl]phenyl}-2,2-dimethylpropyl)benzamide] | 100 to 500
25 | CC(NC(=O)C(C)(C)c1ccc(Cl)cc1)c1ccc(C(=O)NO)cc1 (stereo not shown) [Compound I-378, 4-(1-{[2-(4-chlorophenyl)-2-methylpropanoyl]amino}ethyl)-N-hydroxybenzamide] | < 100
26 | CCC[C@@H](NC(=O)NC(C)(C)C)c1ccc(C(=O)NO)cc1 [Compound I-380, 4-((1R)-1-{[(tert-butylamino)carbonyl]amino}butyl)-N-hydroxybenzamide] | 100 to 500
27 | CCc1ccc(NC(=O)NC(C)c2ccc(C(=O)NO)cc2)cc1 (stereo not shown) [Compound I-381, 4-[1-({[(4-ethylphenyl)amino]carbonyl}amino)ethyl]-N-hydroxybenzamide] | < 100
28 | CC(C)C(NC(=O)C1CCCCCC1)c1ccc(C(=O)NO)cc1 (stereo not shown) [Compound I-382, N-(1-{4-[(hydroxyamino)carbonyl]phenyl}-2-methylpropyl)cycloheptanecarboxamide] | 100 to 500
29 | Cc1ccc(NC(=O)NC(C)c2ccc(C(=O)NO)cc2)c(C)c1 (stereo not shown) [Compound I-383, 4-[1-({[(2,4-dimethylphenyl)amino]carbonyl}amino)ethyl]-N-hydroxybenzamide] | < 100
30 | CC(NC(=O)Nc1ccccc1-c1ccccc1)c1ccc(C(=O)NO)cc1 (stereo not shown) [Compound I-384, 4-(1-{[(biphenyl-2-ylamino)carbonyl]amino}ethyl)-N-hydroxybenzamide] | < 100
31 | CC(NC(=O)c1ccccc1)c1ccc(C(=O)NO)cc1 (stereo not shown) [Compound I-385, 4-[1-(benzoylamino)ethyl]-N-hydroxybenzamide] | < 100
32 | CCC[C@@H](NC(=O)C1(C)CCCCC1)c1ccc(C(=O)NO)cc1 [Compound I-387, N-hydroxy-4-((1R)-1-{[(1-methylcyclohexyl)carbonyl]amino}butyl)benzamide] | < 100
33 | CC(NC(=O)Nc1cc(Cl)cc(Cl)c1)c1ccc(C(=O)NO)cc1 (stereo not shown) [Compound I-388, 4-[1-({[(3,5-dichlorophenyl)amino]carbonyl}amino)ethyl]-N-hydroxybenzamide] | 100 to 500
34 | CC(C)C(NC(=O)c1ccn(C)n1)c1ccc(C(=O)NO)cc1 (stereo not shown) [Compound I-389, N-(1-{4-[(hydroxyamino)carbonyl]phenyl}-2-methylpropyl)-1-methyl-1H-pyrazole-3-carboxamide] | < 100
